What was measured:
Format in all cases: in vivo
[1] = test system: Western Flower Thrips (Frankliniellla occidentalis (Pergande)); experiment: Test F: control of Western Flower Thrips on Soleil bean plant, contact and/or systemic, spray; settings: 50 ppm spray; 6 days; very good to excellent control; criterion is plant damage and/or 100% mortality
Method: (§1) Formulation and Spray Methodology for Tests A-F
(§2) Test compounds were formulated using a solution containing 10% acetone, 90% water and 300 ppm X-77® Spreader Lo-Foam Formula non-ionic surfactant containing alkylarylpolyoxyethylene, free fatty acids, glycols and isopropanol (Loveland Industries, Inc. Greeley, Colo., USA). The formulated compounds were applied in 1 mL of liquid through a SUJ2 atomizer nozzle with 1/8 JJ custom body (Spraying Systems Co. Wheaton, Ill., USA) positioned 1.27 cm (0.5 inches) above the top of each test unit. Test compounds were sprayed at the rates indicated, and each test was replicated three times.
For evaluating control of the Western Flower Thrips (Frankliniellla occidentalis (Pergande)) through contact and/or systemic means, the test unit consisted of a small open container with a 5-7-day-old Soleil bean plant inside.
Test compounds were formulated and sprayed at 250 and/or 50 ppm. After spraying, the test units were allowed to dry for 1 hour, and then 22-27 adult thrips were added to each unit. A black, screened cap was placed on top, and the test units were held for 6 days at 25° C. and 45-55% relative humidity.

[2] = test system: green peach aphid (Myzus persicae (Sulzer)); experiment: whole plant or invertebrate; settings: in Raphanus sativus, 144 h, 6 days; for mortality at 50 ppm: 50 ppm spray; for mortality at 250 ppm: 250 ppm spray
Method: as §1, §2
For evaluating control of green peach aphid (Myzus persicae (Sulzer)) through contact and/or systemic means, the test unit consisted of a small open container with a 12-15-day-old radish plant inside. This was pre-infested by placing on a leaf of the test plant 30-40 aphids on a piece of leaf excised from a culture plant (cut-leaf method). The aphids moved onto the test plant as the leaf piece desiccated. After pre-infestation, the soil of the test unit was covered with a layer of sand.
Test compounds were formulated and sprayed at 250 and/or 50 ppm. After spraying of the formulated test compound, each test unit was allowed to dry for 1 hour and then a black, screened cap was placed on top. The test units were held for 6 days in a growth chamber at 19-21° C. and 50-70% relative humidity. Each test unit was then visually assessed for insect mortality.

[3] = test system: cotton melon aphid (Aphis gossypii (Glover)); experiment: whole plant or invertebrate; settings: 144 h, 6 days; for mortality at 50 ppm: 50 ppm spray; for mortality at 250 ppm: 250 ppm spray
Method: as §1, §2
For evaluating control of cotton melon aphid (Aphis gossypii (Glover)) through contact and/or systemic means, the test unit consisted of a small open container with a 6-7-day-old cotton plant inside. This was pre-infested with 30-40 insects on a piece of leaf according to the cut-leaf method, and the soil of the test unit was covered with a layer of sand.
Test compounds were formulated and sprayed at 250 and/or 50 ppm. After spraying, the test units were maintained in a growth chamber for 6 days at 19° C. and 70% relative humidity. Each test unit was then visually assessed for insect mortality.

[4] = test system: sweetpotato whitefly (Bemisia tabaci (Gennadius)); experiment: whole plant or invertebrate; settings: in Gossypium hirsutum, 312 h, 13 days; for mortality at 50 ppm: 50 ppm spray; for mortality at 250 ppm: 250 ppm spray
Method: as §1, §2
For evaluating control of the sweetpotato whitefly (Bemisia tabaci (Gennadius)) through contact and/or systemic means, the test unit consisted of a small open container with a 12-14-day-old cotton plant inside. Prior to the spray application, both cotyledons were removed from the plant, leaving one true leaf for the assay. Adult whiteflies were allowed to lay eggs on the plant and then were removed from the test unit. Cotton plants infested with at least 15 eggs were submitted to the test for spraying.
Test compounds were formulated and sprayed at 250 and/or 50 ppm. After spraying, the test units were allowed to dry for 1 hour. The cylinders were then removed, and the units were taken to a growth chamber and held for 13 days at 28° C. and 50-70% relative humidity. Each test unit was then visually assessed for insect mortality.

| Structure (SMILES) | control efficacy: plant damage (30% or less plant damage and/or 100% mortality) [1] [%] | mortality at 50 ppm [2] [%] | mortality at 250 ppm [2] [%] | mortality at 50 ppm [3] [%] | mortality at 250 ppm [3] [%] | mortality at 50 ppm [4] [%] | mortality at 250 ppm [4] [%] |
| --- | --- | --- | --- | --- | --- | --- | --- |
| COC(CNC(=O)c1ccc(-c2ccc3nn(-c4cccnc4)cc3c2)c(Cl)c1)OC [Compound 18] | ≤ 30 |  |  |  |  |  |  |
| COC(CNC(=O)c1cccc(-c2ccc3nn(-c4cccnc4)cc3c2)c1)OC [Compound 25, N-(2,2-dimethoxyethyl)-3-[2-(3-pyridinyl)-2H-indazol-5-yl]benzamide] |  | ≥ 80 | ≥ 80 | ≥ 80 | ≥ 80 | ≥ 50 | ≥ 50 |
| O=C(NCCO)c1cccc(-c2ccc3nn(-c4cccnc4)cc3c2)c1 [Compound 31, N-(2-hydroxyethyl)-3-[2-(3-pyridinyl)-2H-indazol-5-yl]benzamide] |  | ≥ 80 | ≥ 80 | ≥ 80 | ≥ 80 |  |  |
| O=C(NC1CCOCC1)c1csc(-c2ccc3nn(-c4cccnc4)cc3c2)n1 [Compound 64, 2-[2-(3-pyridinyl)-2H-indazol-5-yl]-N-(tetrahydro-2H-pyran-4-yl)-4-thiazolecarboxamide] |  | ≥ 80 | ≥ 80 | ≥ 80 | ≥ 80 |  | ≥ 50 |
| O=C(NCc1ncccn1)c1ncsc1-c1ccc2nn(-c3cccnc3)cc2c1 [Compound 78, 5-[2-(3-pyridinyl)-2H-indazol-5-yl]-N-(2-pyrimidinylmethyl)-4-thiazolecarboxamide] |  | ≥ 80 | ≥ 80 | ≥ 80 |  |  |  |
| CNC(=O)C1(NC(=O)c2cc(-c3ccc4nn(-c5cccnc5)cc4c3)ccn2)CC1 [Compound 85, N-[1-[(methylamino)carbonyl]cyclopropyl]-4-[2-(3-pyridinyl)-2H-indazol-5-yl]-2-pyridinecarboxamide] |  | ≥ 80 |  | ≥ 80 |  |  |  |
| NC(=O)C1(NC(=O)c2cc(-c3ccc4nn(-c5cccnc5)cc4c3)ccn2)CC1 [Compound 86, N-[1-(aminocarbonyl)cyclopropyl]-4-[2-(3-pyridinyl)-2H-indazol-5-yl]-2-pyridinecarboxamide] |  | ≥ 80 |  | ≥ 80 |  |  |  |
| CN(C)C(=O)C1(NC(=O)c2cc(-c3ccc4nn(-c5cccnc5)cc4c3)ccn2)CC1 [Compound 87, N-[1-[(dimethylamino)carbonyl]cyclopropyl]-4-[2-(3-pyridinyl)-2H-indazol-5-yl]-2-pyridinecarboxamide] |  | ≥ 80 |  | ≥ 80 |  |  |  |
| CNC(=O)COc1cccc(-c2ccc3nn(-c4cccnc4)cc3c2)c1 [Compound 102, N-methyl-2-[3-[2-(3-pyridinyl)-2H-indazol-5-yl]phenoxy]acetamide] |  | ≥ 80 |  | ≥ 80 |  | ≥ 50 | ≥ 50 |
| COC(=O)C(C)(C)NC(=O)c1nnc(-c2ccc3nn(-c4cccnc4)cc3c2)o1 [Compound 105, 2-methyl-N-[[5-[2-(3-pyridinyl)-2H-indazol-5-yl]-1,3,4-oxadiazol-2-yl]carbonyl]alanine methyl ester] |  |  |  | ≥ 80 |  |  |  |
| COC(=O)C(C)(C)NC(=O)c1nnc(-c2ccc3nn(-c4cccnc4)cc3c2)s1 [Compound 128, 2-methyl-N-[[5-[2-(3-pyridinyl)-2H-indazol-5-yl]-1,3,4-thiadiazol-2-yl]carbonyl]alanine methyl ester] |  |  |  | ≥ 80 |  |  |  |
| CC(C)(C#N)NC(=O)c1coc(-c2ccc3nn(-c4cccnc4)cc3c2)n1 [Compound 155, N-(1-cyano-1-methylethyl)-2-[2-(3-pyridinyl)-2H-indazol-5-yl]-4-oxazolecarboxamide] |  | ≥ 80 |  | ≥ 80 |  |  |  |
